# Source: patent publication US20150072888A1, “Biomarkers For Diagnosis Of Diabetes And Monitoring Of Anti-Diabetic Therapy” (Sumitomo Bakelite Co., Ltd., priority 2012, published 2015)
# What was measured:
# [1] = system: db/db mice; experiment: Plasma N-glycan profile of db/db mice treated with insulin detemir; format: in vivo, mouse; conditions: for Direction of change of hybrid glycan 430010 / Direction of change of hybrid glycan 530010 / Direction of change of hybrid glycan 630010: days 7, 14, 21, significant as early as Day 7; for Direction of change of high mannose glycan 520000 (Man5GlcNAc2) / Direction of change of high mannose glycan 620000 (Man6GlcNAc2) / Direction of change of high mannose glycan 720000 (Man7GlcNAc2) / Direction of change of high mannose glycan 820000 (Man8GlcNAc2): significant at Day 7, 14 and 21
# Method: A 10 μl aliquot of each plasma sample was spiked with internal standard (700 pmol) and analyzed for N-linked glycans using Ezose Sciences' GLYCANMAP methodology. The samples were denatured and then digested with trypsin, followed by heat-inactivation. The mixture was then treated with PNGase F. After enzymatic release of N-glycans, aliquots were subjected to solid-phase processing using BLOTGLYCO beads. Following capture on the beads, the sialic acid residues were methyl esterified. The glycans were simultaneously released from the beads and labeled, and then aliquots of the recovered materials were spotted onto a MALDI target plate. Steps from initial aliquoting to spotting on the MALDI plate were performed using the fully automated SWEETBLOT technology. MALDI-TOF MS analysis was performed on an ultraflex III mass spectrometer (Bruker Daltonics) in the positive-ion, reflector mode. Each sample from the BLOTGLYCO bead processing step was spotted in quadruplicate, and spectra were obtained in an automated manner using the AutoXecute feature in flexControl software (Bruker Daltonics). Proposed glycan structures were assigned based on molecular weight. These methods have been described previously by Nishimura, Furukawa and Miura (Nishimura et al., Angew Chem. Int. Ed. Engl., 44: 91-96 (2004); Furukawa et al., Anal. Chem., 80: 1094-1101 (2008); Miura et al., Chem.-A Eur. J, 13: 4797-4804 (2007)). Alternatively, standard fluorescent HPLC or capillary electrophoresis methods with 2-AA, 2-AB, or APTS labeling can be used to monitor the glycan levels and changes in glycan patterns.
# A further study was undertaken to evaluate the performance of candidate biomarkers discovered using rosiglitazone in mice treated with a diabetes drug having a different mechanism of action. The candidate biomarkers that were identified in Example 1 were evaluated in db/db mice treated with insulin detemir and vehicle.
# Plasma samples were analyzed from ten db/db mice at baseline (0 days) and from 20 db/db mice (ten vehicle and ten insulin detemir-treated) at 7, 14, and 21 days. Sample preparation and analysis followed the protocol described in Example 1.
# Concentrations of individual glycans in insulin detemir- and vehicle-treated db/db mice were compared at each time-point using the Student's t-test. N-glycans which yielded p-values<0.05 in this analysis were considered significant. Time-dependence was also evaluated for each of the candidate biomarkers by comparing each time-point to baseline.
# [2] = system: db/db mice; experiment: Plasma N-glycan profile (GLYCANMAP, MALDI-TOF MS) of db/db mice treated with rosiglitazone, initial study (Table 1 summarises both rosiglitazone studies); format: in vivo, mouse; conditions: first rosiglitazone study, db/db mice vs vehicle
# Method: A 10 μl aliquot of each plasma sample was spiked with internal standard (700 pmol) and analyzed for N-linked glycans using Ezose Sciences' GLYCANMAP methodology. The samples were denatured and then digested with trypsin, followed by heat-inactivation. The mixture was then treated with PNGase F. After enzymatic release of N-glycans, aliquots were subjected to solid-phase processing using BLOTGLYCO beads. Following capture on the beads, the sialic acid residues were methyl esterified. The glycans were simultaneously released from the beads and labeled, and then aliquots of the recovered materials were spotted onto a MALDI target plate. […]
# Rosigilitazone is a member of the athiazolidinedione class of anti-diabetic drugs, and is marketed by Glaxo under the trade name AVANDIA. […] A baseline (Day 0) sample was not analyzed in the initial rosiglitazone study, but was included in a subsequent rosiglitazone confirmatory study. […]
# Several criteria were used in the initial rosiglitazone study to select the most promising biomarkers. Statistical significance was evaluated based on the Mann-Whitney test or Student's t-test and changes considered significant if the resulting p-value was less than 0.05. […] After the confirmatory rosiglitazone study, one glycan (530010) that had been excluded in the initial study was re-evaluated. […]
# [3] = db/db mice plasma vs vehicle, listed as Insulin Detemir
Compound,Changes in HbA1c compared with rosiglitazone ([1]; db/db mice),Magnitude of changes in high-mannose glycans compared with rosiglitazone ([1]; db/db mice plasma),Changes in Glycan 540020 ([1]; db/db mice plasma vs vehicle),Changes in O-acetylated N-glycans ([1]; db/db mice plasma vs vehicle),Changes in fucosylated N-glycans ([1]; db/db mice plasma vs vehicle),Direction of change of hybrid glycan 430010 ([1]; db/db mice plasma vs vehicle),Direction of change of hybrid glycan 530010 ([1]; db/db mice plasma vs vehicle),Direction of change of hybrid glycan 630010 ([1]; db/db mice plasma vs vehicle),"Direction of change of hybrid glycan 430010 [1, 3]","Direction of change of hybrid glycan 530010 [1, 3]","Direction of change of hybrid glycan 630010 [1, 3]",Direction of change of high mannose glycan 520000 (Man5GlcNAc2) ([1]; db/db mice plasma vs vehicle),Direction of change of high mannose glycan 620000 (Man6GlcNAc2) ([1]; db/db mice plasma vs vehicle),Direction of change of high mannose glycan 720000 (Man7GlcNAc2) ([1]; db/db mice plasma vs vehicle),Direction of change of high mannose glycan 820000 (Man8GlcNAc2) ([1]; db/db mice plasma vs vehicle),"Direction of change of high mannose glycan 520000 (Man5GlcNAc2) [1, 3]","Direction of change of high mannose glycan 620000 (Man6GlcNAc2) [1, 3]","Direction of change of high mannose glycan 720000 (Man7GlcNAc2) [1, 3]","Direction of change of high mannose glycan 820000 (Man8GlcNAc2) [1, 3]",Time until highly significant difference (p<0.001) was achieved for HbA1c [2] [days]
insulin detemir,more subtle changes,lower in magnitude,no significant changes,no significant changes,no significant changes,significant decreases,significant decreases,significant decreases,Decreased,Decreased,Decreased,lower levels,lower levels,lower levels,lower levels,Decreased,Decreased,Decreased,Decreased,–
CN(CCOc1ccc(CC2SC(=O)NC2=O)cc1)c1ccccn1 (centres unmarked) [rosiglitazone],–,–,–,–,–,–,–,–,–,–,–,–,–,–,–,–,–,–,–,21
